According to patent US8513271B2, “Pyrimidine compounds as delta opioid receptor modulators” (Janssen Pharmaceutica, NV, priority 2009, dated 2013):
pEC50: −log10 of the molar value. Like-named read-outs stand apart in the source and are kept apart here.

Target: T1, delta opioid receptor (Mus musculus, UniProt P32300)
T1 construct: NG108-15 cell membranes were purchased from Applied Cell Sciences (Rockville, Md.); host or cells: NG108-15 cell membranes
Assay: [35S]GTPγS binding assay in NG108-15 cell membranes (delta opioid functional assay), 200 nM screen
Assay type: biochemical
Details: NG108-15 cell membranes; for GTPγS δ-RelEfficacy @200 nM: 200 nM test compound, relative to calculated max of SNC80 dose response curve; for GTPγS δ-RelEfficacy @200 nM / pEC50 / EC50: averages if tested more than once; for pEC50: read-out: GTPγS δ-opioid receptor EC50; for GTPγS δ-opioid receptor Rel Efficacy: relative efficacy from dose response; for EC50: GTPγS δ-opioid receptor EC50 (μM)

T1 sequence (P32300 whole entry): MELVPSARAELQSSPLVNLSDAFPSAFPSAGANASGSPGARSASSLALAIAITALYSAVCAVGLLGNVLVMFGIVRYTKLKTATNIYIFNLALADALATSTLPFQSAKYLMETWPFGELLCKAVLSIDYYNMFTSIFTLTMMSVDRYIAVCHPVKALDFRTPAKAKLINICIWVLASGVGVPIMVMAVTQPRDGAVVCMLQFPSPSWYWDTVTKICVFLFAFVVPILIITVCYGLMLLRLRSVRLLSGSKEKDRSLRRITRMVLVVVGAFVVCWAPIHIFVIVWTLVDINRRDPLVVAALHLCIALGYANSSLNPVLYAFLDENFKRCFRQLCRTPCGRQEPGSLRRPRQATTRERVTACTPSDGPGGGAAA

SMILES	GTPγS δ-RelEfficacy @200 nM	pEC50	GTPγS δ-opioid receptor Rel Efficacy	EC50 [µM]
c1cncc(Cc2ccc(Oc3nc(-c4cccnc4)ncc3NC[C@@H]3CCCN3)cc2)c1 [Cpd 209, [2-Pyridin-3-yl-4-(4-pyridin-3-ylmethyl-phenoxy)-pyrimidin-5-yl]-pyrrolidin-2-(S)-ylmethyl-amine]	0.002	–	–	–
Cc1cc(Oc2nc(-c3cncc(C#N)c3)ncc2NC[C@@H]2CCCN2)ccc1F [Cpd 218]	0.642	6.45	0.960	–
COc1ccc(Oc2nc(-c3cncc(C)c3)ncc2N[C@H]2CCCNC2)cc1 [Cpd 259]	–	–	1.030	0.0749
CC[C@H]1CNCCN1c1cnc(-c2cncc(OC)c2)nc1Oc1ccc(OC)cc1 [Cpd 360]	–	–	1.015	0.013
COc1ccc(Oc2nc(-c3cccnc3)ncc2N2C[C@@H](C)N[C@@H](C)C2)cc1 [Cpd 359]	–	–	0.709	0.034
N#Cc1cncc(-c2ncc(NC[C@@H]3CCCN3)c(Oc3ccc(CF)cc3)n2)c1 [Cpd 206]	0.292	–	–	–
COc1ccc(Oc2nc(-c3cncnc3)ncc2N(C[C@@H]2CCCN2)C(C)=O)cc1 [Cpd 181, N-[4-(4-Methoxy-phenoxy)-[2,5′]bipyrimidinyl-5-yl]-N-pyrrolidin-2-(S)-ylmethyl-acetamide]	0.139	–	–	–
COc1ccc(Oc2nc(-c3cccnc3)ncc2NC[C@@H]2C[C@@H](F)CN2)cc1 [Cpd 196]	0.800	–	1.146	0.0693
COc1ccc(Oc2nc(-c3cccnc3)ncc2NC2CCCC(N)C2)cc1 (stereo not shown) [Cpd 306]	0.910	–	1.127	0.031
COc1ccc(Oc2nc(-c3cccnc3)ncc2N2CCN(C)CC2)cc1 [Cpd 353, 4-(4-Methoxy-phenoxy)-5-(4-methyl-piperazin-1-yl)-2-pyridin-3-yl-pyrimidine]	–	6.57	0.651	–
COc1ccc(Oc2nc(-c3cncc(C#N)c3)ncc2N2CC[C@@H](N)C2)cc1 [Cpd 326]	0.744	–	1.104	0.032
Cc1ccc(Oc2nc(-c3cccnc3)ncc2NC[C@@H]2CCCN2)cc1F [Cpd 187]	0.497	6.80	1.104	–
COc1ccc(Oc2nc(-c3cncc(SC)c3)ncc2NC2CCCC(N)C2)cc1 (racemic) [Cpd 310]	–	–	1.042	0.031
COc1ccc(Oc2nc(-c3cncc(C)c3)ncc2NC2CCCC(N)C2)cc1 (stereo not shown) [Cpd 315]	–	–	1.019	0.042
COCCOc1ccc(Oc2nc(-c3cncc(C)c3)ncc2NC[C@@H]2CCCN2)cc1 [Cpd 242]	0.413	–	–	–
CCc1ccc(Oc2nc(-c3cccnc3)ncc2NC[C@@H]2CCCN2)cc1 [Cpd 184]	0.497	6.38	1.271	–
COc1ccc(Oc2nc(-c3cccnc3)ncc2NC2CCCC(N)C2)cc1 (single isomer, unassigned) [Cpd 323]	–	–	0.988	0.06
Cc1cc(Oc2nc(-c3cncc(F)c3)ncc2NC[C@@H]2CCCN2)ccc1F [Cpd 219]	0.475	< 6.00	–	–
COc1ccc(Oc2nc(-c3cncc(SC)c3)ncc2NCc2cnc[nH]2)cc1 [Cpd 289]	0.402	–	–	–
CSc1cncc(-c2ncc(NC[C@@H]3CCCN3)c(Oc3cccc(OC(C)=O)c3)n2)c1 [Cpd 248]	0.754	–	1.084	0.047
CCc1ccc(Oc2nc(-c3cncc(C#N)c3)ncc2NC[C@@H]2CCCN2)cc1 [Cpd 179]	0.601	6.92	1.182	–
COc1ccc(Oc2nc(-c3cnc(-c4cnc(Cl)c(C)c4)c(C)c3)ncc2NC[C@@H]2CCCN2)cc1 [Cpd 264]	–	6.92	1.036	–
Clc1cncc(-c2ncc(NC[C@@H]3CCCN3)c(Oc3ccccc3Cl)n2)c1 [Cpd 229]	0.715	–	0.890	0.061
COc1ccc(Oc2nc(-c3cccnc3)ncc2NC[C@@H]2C[C@H](O)CN2)cc1 [Cpd 272]	–	< 6.00	–	–

SMILES	GTPγS δ-RelEfficacy @200 nM	pEC50	GTPγS δ-opioid receptor Rel Efficacy	EC50 [µM]
CSc1cncc(-c2ncc(NC[C@@H]3CCCN3)c(Oc3ccccc3Cl)n2)c1 [Cpd 233]	0.549	–	–	–
COc1ccc(Oc2nc(-c3cnc(Cl)cc3C)ncc2NC[C@@H]2CCCN2)cc1 [Cpd 265]	–	–	1.024	0.053
COc1ccc(Oc2nc(-c3cncc(CO)c3)ncc2NC[C@@H]2CCCN2)cc1 [Cpd 269, (5-{4-(4-Methoxy-phenoxy)-5-[(pyrrolidin-2-(S)-ylmethyl)-amino]-pyrimidin-2-yl}-pyridin-3-yl)-methanol]	–	–	0.984	0.053
COc1ccc(Oc2nc(-c3cncc(OC)c3)ncc2NC2CCCC(N)C2)cc1 (mixture of isomers) [Cpd 309]	–	7.46	1.162	–
COc1ccc(Oc2nc(-c3cccnc3)ncc2NC2CCCCC2N)cc1 (single isomer, unassigned) [Cpd 308]	0.140	–	–	–
COc1ccc(Oc2nc(-c3cccnc3)ncc2N2CCN[C@@H](C)C2)cc1 [Cpd 356]	–	7.51	1.030	–
Cc1cccc(Oc2nc(-c3cncc(F)c3)ncc2NC[C@@H]2CCCN2)c1 [Cpd 202]	0.122	–	–	–
COc1ccc(Oc2nc(-c3cncc(C#N)c3)ncc2NC2CCNCC2)cc1 [Cpd 208]	0.398	–	–	–
COc1ccc(Oc2nc(-c3cc(C)cnc3Cl)ncc2NC[C@@H]2CCCN2)cc1 [Cpd 268]	–	–	1.023	0.081
N#Cc1cncc(-c2ncc(NC[C@@H]3CCCN3)c(Oc3ccc(C(F)(F)F)cc3)n2)c1 [Cpd 220]	0.457	6.34	0.890	–
COc1ccc(Oc2nc(-c3cccnc3)ncc2NCc2cnc[nH]2)cc1 [Cpd 288]	0.428	–	–	–
CCc1ccc(Oc2nc(-c3cncc(Cl)c3)ncc2NC[C@@H]2CCCN2)cc1 [Cpd 180]	0.250	–	–	–
CCc1ccc(Oc2nc(-c3cncc(F)c3)ncc2NC[C@@H]2CCCN2)cc1 [Cpd 182]	0.470	6.42	1.065	–
CS(=O)(=O)Nc1ccc(Oc2nc(-c3cncc(F)c3)ncc2NC[C@@H]2CCCN2)cc1 [Cpd 213, N-(4-{2-(5-Fluoro-pyridin-3-yl)-5-[(pyrrolidin-2-(S)-ylmethyl)-amino]-pyrimidin-4-yloxy}-phenyl)-methanesulfonamide]	0.079	–	–	–
COc1ccc(Oc2nc(-c3cccnc3)ncc2N[C@@H]2CCC[C@H](N)C2)cc1 [Cpd 322]	–	–	0.960	0.196
COc1ccc(Oc2nc(-c3cncc(SC)c3)ncc2N2CCNC(C)(C)C2)cc1 [Cpd 350]	–	–	1.079	0.083
COc1ccc(Oc2nc(-c3cncc(C)c3)ncc2N2CCCNCC2)cc1 [Cpd 358]	–	7.62	0.978	–
O=C(Nc1cccc(Oc2nc(-c3cccnc3)ncc2NC[C@@H]2CCCN2)c1)OCc1ccccc1 [Cpd 188]	0.779	6.66	1.950	–
COc1ccc(Oc2nc(-c3cccnc3)ncc2NC[C@@H]2C[C@@H](O)CN2)cc1 [Cpd 270, 5-(S)-{[4-(4-Methoxy-phenoxy)-2-(pyridin-3-yl)-pyrimidin-5-ylamino]-methyl}-pyrrolidin-3-(R)-ol]	–	6.71	0.820	–
COc1ccc(Oc2nc(-c3cncc(Cl)c3)ncc2NC[C@@H]2CCCN2)cc1C [Cpd 210]	0.730	–	1.150	0.044
COc1ccc(Oc2nc(-c3cncc(C)c3)ncc2N[C@H]2CCNC2)cc1 [Cpd 257]	–	–	0.830	0.095
COc1ccc(Oc2nc(-c3cncc(C)c3)ncc2NCCN)cc1 [Cpd 296]	–	6.37	0.938	–
CCN(CC)C(=O)c1ccc(Oc2nc(-c3cccnc3)ncc2NC[C@@H]2CCCN2)cc1 [Cpd 175]	0.005	–	–	–
COc1ccc(Oc2nc(-c3cccnc3)ncc2N2CC[C@@H](N)C2)cc1 [Cpd 339]	0.641	–	–	–
